# Measured values from US20110195900A1, “PEPTIDIC PTH RECEPTOR AGONISTS” (FERRING B.V., priority 2008, published 2011).
# Non-standard residues stand in square brackets, D forms with d. Residues, ends and D or L forms follow the SMILES beside them. 1Nal = N[C@@H](Cc1cccc2ccccc12)C(=O)O; β3hI = CC[C@H](C)[C@H](N)CC(=O)O; β3hF = N[C@H](CC(=O)O)Cc1ccccc1; Nle = CCCC[C@H](N)C(=O)O
# Target: T1, human PTH-1 receptor (Homo sapiens, UniProt Q03431)
# T1 construct: expressed in transfected cells; host or cells: HEK-293
# T1 sequence (Q03431 27-593): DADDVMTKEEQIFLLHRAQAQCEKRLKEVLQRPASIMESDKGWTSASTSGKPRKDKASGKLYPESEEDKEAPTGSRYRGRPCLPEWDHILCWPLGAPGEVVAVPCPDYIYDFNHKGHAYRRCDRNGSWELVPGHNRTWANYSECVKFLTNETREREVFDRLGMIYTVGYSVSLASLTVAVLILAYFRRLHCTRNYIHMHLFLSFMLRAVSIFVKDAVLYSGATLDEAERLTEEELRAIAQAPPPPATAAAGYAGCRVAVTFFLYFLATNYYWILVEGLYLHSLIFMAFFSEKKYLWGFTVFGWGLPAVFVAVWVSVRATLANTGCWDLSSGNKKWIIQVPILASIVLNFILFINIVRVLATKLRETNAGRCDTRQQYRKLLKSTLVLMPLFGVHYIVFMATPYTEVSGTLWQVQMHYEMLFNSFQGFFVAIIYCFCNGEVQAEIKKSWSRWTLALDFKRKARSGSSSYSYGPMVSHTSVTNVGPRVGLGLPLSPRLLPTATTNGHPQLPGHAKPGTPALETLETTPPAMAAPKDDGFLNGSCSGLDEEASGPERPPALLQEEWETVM
# Experiment: Reporter gene assay (CRE-luciferase) for agonist activity in transiently transfected HEK-293 cells
# Format: cell-based
# Conditions: for hPTHR-2/hPTHR-1: Table 3, ratio of EC50 values, selectivity for hPTH-1 receptor over hPTH-2 receptor
# Summary of the method: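 Selectivity came from luciferase transcriptional reporter assays expressing human PTH-2 receptor. PTH-1 agonism used transiently transfected HEK-293 cells carrying SV40-promoter receptor and cAMP-responsive-element luciferase; 4-5 h compound exposure, lysis, luminescence, non-linear-regression EC50/efficacy; ≥3 independent runs, PTH (1-34) control each.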
smiles,measurement,value
"CCCC[C@H](NC(=O)[C@H](CC(C)C)NC(=O)[C@H](CCC(N)=O)NC(=O)[C@@H](NC(=O)[C@H](CCC(=O)O)NC(=O)[C@H](CO)NC(=O)[C@@H](NC(=O)[C@@H](N)CO)C(C)C)[C@@H](C)CC)C(=O)N[C@@H](Cc1c[nH]cn1)C(=O)N[C@@H](CC(N)=O)C(=O)N[C@@H](CC(C)C)C(=O)NCC(=O)N[C@@H](CCCCN)C(=O)N[C@@H](Cc1c[nH]cn1)C(=O)N[C@@H](CC(C)C)C(=O)N[C@@H](CC(N)=O)C(=O)N[C@@H](CO)C(=O)N[C@H](CC(=O)N[C@@H](CCC(=O)O)C(=O)N[C@@H](CCCNC(=N)N)C(=O)N[C@H](C(=O)N[C@@H](CCC(=O)O)C(=O)N[C@@H](Cc1cccc2ccccc12)C(=O)N[C@@H](CC(C)C)C(=O)N[C@@H](CCCNC(=N)N)C(=O)N[C@@H](CCCCN)C(=O)N[C@@H](CC(C)C)C(=O)N[C@@H](CC(C)C)C(=O)N[C@@H](CCC(N)=O)C(=O)N[C@@H](CC(=O)O)C(=O)N[C@H](C(=O)N[C@@H](Cc1c[nH]cn1)C(=O)N[C@@H](CC(N)=O)C(=O)N[C@@H](Cc1ccccc1)C(N)=O)C(C)C)C(C)C)Cc1ccccc1 [SEQ ID NO: 46, [Nle^8, β-hPhe^18,1-Nal^23, Leu^27] hPTH (1-34)-NH2] (H-SVSEIQL[Nle]HNLGKHLNS[β3hF]ERVE[1Nal]LRKLLQDVHNF-NH2)",EC50,0.11 nM
same,hPTHR-2/hPTHR-1,94
"CCCC[C@H](NC(=O)[C@H](CC(C)C)NC(=O)[C@H](CCC(N)=O)NC(=O)[C@@H](NC(=O)[C@H](CCC(=O)O)NC(=O)[C@H](CO)NC(=O)[C@@H](NC(=O)[C@@H](N)CO)C(C)C)[C@@H](C)CC)C(=O)N[C@@H](Cc1c[nH]cn1)C(=O)N[C@@H](CC(N)=O)C(=O)N[C@@H](CC(C)C)C(=O)NCC(=O)N[C@@H](CCCCN)C(=O)N[C@@H](Cc1c[nH]cn1)C(=O)N[C@@H](CC(C)C)C(=O)N[C@@H](CC(N)=O)C(=O)N[C@@H](CO)C(=O)N[C@H](CC(=O)N[C@@H](CCC(=O)O)C(=O)N[C@@H](CCCNC(=N)N)C(=O)N[C@H](C(=O)N[C@@H](CCC(=O)O)C(=O)N[C@@H](Cc1cccc2ccccc12)C(=O)N[C@@H](CC(C)C)C(=O)N[C@@H](CCCNC(=N)N)C(=O)N[C@@H](CCCCN)C(=O)N[C@@H](CC(C)C)C(=O)N[C@@H](CC(C)C)C(=O)N[C@@H](CCC(N)=O)C(=O)N[C@@H](CO)C(=O)N[C@H](C(=O)N[C@@H](Cc1c[nH]cn1)C(=O)N[C@@H](CC(N)=O)C(=O)N[C@@H](Cc1ccccc1)C(N)=O)C(C)C)C(C)C)[C@@H](C)CC [SEQ ID NO: 26, [Nle^8, β-hIle^18,1-Nal^23, Leu^27, Ser^30] hPTH (1-34)-NH2] (H-SVSEIQL[Nle]HNLGKHLNS[β3hI]ERVE[1Nal]LRKLLQSVHNF-NH2)",EC50,0.19 nM
same,hPTHR-2/hPTHR-1,98
"CCCC[C@H](NC(=O)[C@H](CC(C)C)NC(=O)[C@H](CCC(N)=O)NC(=O)[C@@H](NC(=O)[C@H](CCC(=O)O)NC(=O)[C@H](CO)NC(=O)[C@@H](NC(=O)[C@@H](N)CO)C(C)C)[C@@H](C)CC)C(=O)N[C@@H](Cc1c[nH]cn1)C(=O)N[C@@H](CC(N)=O)C(=O)N[C@@H](CC(C)C)C(=O)NCC(=O)N[C@@H](CCCCN)C(=O)N[C@@H](Cc1c[nH]cn1)C(=O)N[C@@H](CC(C)C)C(=O)N[C@@H](CC(N)=O)C(=O)N[C@@H](CO)C(=O)N[C@H](CC(=O)N[C@@H](CCC(=O)O)C(=O)N[C@@H](CCCNC(=N)N)C(=O)N[C@H](C(=O)N[C@@H](CCC(=O)O)C(=O)N[C@@H](Cc1cccc2ccccc12)C(=O)N[C@@H](CC(C)C)C(=O)N[C@@H](CCCNC(=N)N)C(=O)N[C@@H](CCCCN)C(=O)N[C@@H](CC(C)C)C(=O)N[C@@H](CC(C)C)C(=O)N[C@@H](CCC(N)=O)C(=O)N[C@@H](CC(=O)O)C(=O)N[C@H](C(=O)N[C@@H](Cc1c[nH]cn1)C(=O)N[C@@H](CC(N)=O)C(=O)N[C@@H](Cc1ccccc1)C(=O)O)C(C)C)C(C)C)[C@@H](C)CC [SEQ ID NO: 9, [Nle^8, β-hIle^18,1-Nal^23, Leu^27] hPTH (1-34)-OH] (H-SVSEIQL[Nle]HNLGKHLNS[β3hI]ERVE[1Nal]LRKLLQDVHNF-OH; N-terminus assumed)",EC50,0.14 nM
same,hPTHR-2/hPTHR-1,158
"CCCC[C@H](NC(=O)[C@H](CC(C)C)NC(=O)[C@H](CCC(N)=O)NC(=O)[C@@H](NC(=O)[C@H](CCC(=O)O)NC(=O)[C@H](CO)NC(=O)[C@@H](NC(=O)[C@@H](N)CO)C(C)C)[C@@H](C)CC)C(=O)N[C@@H](Cc1c[nH]cn1)C(=O)N[C@@H](CC(N)=O)C(=O)N[C@@H](CC(C)C)C(=O)NCC(=O)N[C@@H](CCCCN)C(=O)N[C@@H](Cc1c[nH]cn1)C(=O)N[C@@H](CC(C)C)C(=O)N[C@@H](CC(N)=O)C(=O)N[C@@H](CO)C(=O)N[C@H](CC(=O)N[C@@H](CCC(=O)O)C(=O)N[C@@H](CCCNC(=N)N)C(=O)N[C@H](C(=O)N[C@@H](CCC(=O)O)C(=O)N[C@@H](Cc1cccc2ccccc12)C(=O)N[C@@H](CC(C)C)C(=O)N[C@@H](CCCNC(=N)N)C(=O)N[C@@H](CCCCN)C(=O)N[C@@H](CC(C)C)C(=O)N[C@@H](CC(C)C)C(=O)N[C@@H](CCC(N)=O)C(=O)N[C@@H](CC(=O)O)C(=O)N[C@H](C(=O)O)C(C)C)C(C)C)[C@@H](C)CC [SEQ ID NO: 10, [Nle^8, β-hIle^18,1-Nal^23, Leu^27] hPTH (1-31)-OH] (H-SVSEIQL[Nle]HNLGKHLNS[β3hI]ERVE[1Nal]LRKLLQDV-OH)",EC50,0.09 nM
same,hPTHR-2/hPTHR-1,811
"CCCC[C@H](NC(=O)[C@H](CC(C)C)NC(=O)[C@H](CCC(N)=O)NC(=O)[C@@H](NC(=O)[C@H](CCC(=O)O)NC(=O)[C@H](CO)NC(=O)[C@@H](NC(=O)[C@@H](N)CO)C(C)C)[C@@H](C)CC)C(=O)N[C@@H](Cc1c[nH]cn1)C(=O)N[C@@H](CO)C(=O)N[C@@H](CC(C)C)C(=O)NCC(=O)N[C@@H](CCCCN)C(=O)N[C@@H](Cc1c[nH]cn1)C(=O)N[C@@H](CC(C)C)C(=O)N[C@@H](CCCCN)C(=O)N[C@@H](CO)C(=O)N[C@H](CC(=O)N[C@@H](CCC(=O)O)C(=O)N[C@@H](CCCNC(=N)N)C(=O)N[C@H](C(=O)N[C@@H](CCC(=O)O)C(=O)N[C@@H](Cc1cccc2ccccc12)C(=O)N[C@@H](CC(C)C)C(=O)N[C@@H](CCCNC(=N)N)C(=O)N[C@@H](CCCCN)C(=O)N[C@@H](CC(C)C)C(=O)N[C@@H](CC(C)C)C(=O)N[C@@H](CCC(N)=O)C(=O)N[C@@H](CCCNC(=N)N)C(=O)N[C@H](C(=O)N[C@@H](Cc1c[nH]cn1)C(=O)N[C@@H](CCC(=O)O)C(=O)N[C@@H](Cc1ccccc1)C(N)=O)C(C)C)C(C)C)[C@@H](C)CC [SEQ ID NO: 40, [Nle^8, Ser^10, Lys^16, β-hIle^18,1-Nal^23, Leu^27, Arg^30, Glu^33] hPTH(1-34)-NH2] (H-SVSEIQL[Nle]HSLGKHLKS[β3hI]ERVE[1Nal]LRKLLQRVHEF-NH2)",EC50,0.12 nM
same,hPTHR-2/hPTHR-1,69
